Assay results from PubChem BioAssay AID2477 (Broad Institute, 2010).
Where “and” joins values, the source holds several entries; their conditions need not be identical. Equal entries are not always repeated.

System: Streptococcus pyogenes UMAA2166 viability, BacTiter-Glo luminescence, 6 h
Assay: GAS bacterial viability reduction – luminescence, BacTiter-Glo, strain UMAA2166, counter-screen for streptokinase expression inhibitor project, dose response (AID 2477);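 active = compounds whose fitted viability EC50 is at most ten times the top tested dose; inconclusive = flat fit with partial activity, or a poor fit; inactive = the rest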

SMILES | EC50 (measured here: retest run 2) [µM] | EC50 (measured here: retest run 3) [µM] | EC50 (measured here: retest run 4) [µM] | EC50
COc1ccc(-c2nc(OC)c3ccccc3n2)cc1 | > 500 | > 500 | – | –
Cc1ccc(Sc2ccc(NC(=O)c3ccc(F)cc3)cc2C#N)cc1 | > 500 | > 500 | > 500 | –
CC(C)Oc1nc(-c2ccc(Cl)cc2)nc2ccccc12 | 47 | > 500 | > 500 | –
CCCOc1ccc(-c2nc(Oc3ccc(OC)cc3)c3ccccc3n2)cc1 | > 500 | > 500 | > 500 | –
COc1ccc(Sc2ccc(NC(=O)c3ccccc3Cl)cc2C#N)cc1 | > 500 | 45.4 | > 500 | > 500 µM (inactive) and 36.7 µM
N#Cc1cc(NC(=O)c2ccc(Cl)cc2)ccc1Sc1ccccc1 | 70.5 | 69.3 | – | –
COc1ccc(Sc2ccc(NC(=O)c3cccc(Cl)c3)cc2C#N)cc1 | > 500 | – | – | –
COc1nc(-c2ccccc2)nc2ccccc12 | > 500 | > 500 | > 500 | –
COc1ccc(S(=O)(=O)c2ccc(NC(=O)c3ccccc3Cl)cc2C#N)cc1 | > 500 | > 500 | > 500 | –
CCCOc1ccc(-c2nc(Oc3ccccc3)c3ccccc3n2)cc1 | > 500 | > 500 | > 500 | –
COc1cccc(-c2nc(OC(C)C)c3ccccc3n2)c1 | > 500 | > 500 | > 500 | –
CCCOc1ccc(-c2nc(OC)c3ccccc3n2)cc1 | > 500 | > 500 | > 500 | –
